Source: US8367622B2, “Sulfated C-glycoside, method for isolating same and method for synthesizing same” (Shizuoka Prefecture Public University Corporation, priority 2009, dated 2013)
“Also recorded” adds a separate entry of the source. Read-outs that look alike come from different tables or passages of the source.

Columns and labels:
[1] = test system: intestinal polyp formation induced by azoxymethane (AOM); conditions: 2.5 mg/kg, same dosage as indomethacin; cited from earlier work
[2] = test system: atopic disease model induced by 2,4-dinitro-fluorobenzene; conditions: cited from earlier work; for activity in atopic disease model: oral administration, ingredients isolated from oolong tea
Water solubility = format: physicochemical
Excerpt: Considering the fact that sulfation has been correlated with mechanism of detoxification elimination in metabolism, the presence of precursors of chafuroside which are sulfated derivatives in tea leaves has great significance. As for isovitexin and vitexin, their anticancer effect, effect of reducing damages by UV irradiation, inhibiting effect of COX, antioxidant effect, antianxiety effect and the like have been drawing the attention recently.
(§1) In the result, the production of chafurosides A and B by heating was detected only in all of the extracts and their aqueous fractions.

[3] = Liquid-liquid partition with water and n-BuOH; format: physicochemical; conditions: qualitative
Experimental: 1 g of oolong tea leaves prepared from Shizu 7132 was ground and was subjected to extract with MeOH, 50%-MeOH and water (1 ml) under reflux. After concentrating, drying and solidifying the extract liquid under reduced pressure, it was suspended in water (0.4 ml) and then was extracted with n-BuOH (4 ml and 1 ml). All of the extracts, their aqueous fractions and n-BuOH fractions obtained by liquid-liquid partition thereof were heated at 160° C. for 40 minutes.
as §1

solubility in water (Water solubility)	Structure (SMILES)	activity in atopic disease model [2]	solubility in water (Water solubility; qualitative)	fraction after liquid-liquid partition water / n-butanol [3]	also measured
–	O=c1cc(-c2ccc(O)cc2)oc2cc3c(c(O)c12)[C@@H]1O[C@H](CO)[C@@H](O)[C@H](O)[C@@H]1O3 [chafuroside A]	exhibiting activities via oral administration	–	–	inhibiting activity against intestinal polyp formation [1]: effectively-inhibiting activity; dermal inflammation-inhibiting activity ([2]; 10 μg/kg, comparable with Prednisolone (10 mg/kg) and Betamethasone (0.8 mg/kg)): significant dermal inflammation-inhibiting activity
–	O=c1cc(-c2ccc(O)cc2)oc2c3c(cc(O)c12)O[C@H]1[C@@H](O)[C@H](O)[C@@H](CO)O[C@@H]31 [chafuroside B]	exhibiting activities via oral administration	–	–	–
–	O=c1cc(-c2ccc(O)cc2)oc2cc(O)c([C@@H]3O[C@H](CO)[C@@H](O)[C@H](O)[C@H]3O)c(O)c12 [isovitexin]	–	very poorly soluble in water	move to the n-butanol solvent fraction	fraction after liquid-liquid partition water / n-butanol ([3]; listed as Isovitexin): move to n-BuOH fractions
high water solubility	O=c1cc(-c2ccc(O)cc2)oc2cc(O)c([C@@H]3O[C@H](CO)[C@@H](O)[C@H](O)[C@H]3OS(=O)(=O)O)c(O)c12 [prechafuroside A, isovitexin 2″-O-sulfate]	–	–	–	–
high water solubility	O=c1cc(-c2ccc(O)cc2)oc2c([C@@H]3O[C@H](CO)[C@@H](O)[C@H](O)[C@H]3OS(=O)(=O)O)c(O)cc(O)c12 [prechafuroside B, vitexin 2″-O-sulfate]	–	–	–	–
–	O=c1cc(-c2ccc(O)cc2)oc2c([C@@H]3O[C@H](CO)[C@@H](O)[C@H](O)[C@H]3O)c(O)cc(O)c12 [vitexin]	–	very poorly soluble in water	move to n-BuOH fractions; also recorded: move to the n-butanol solvent fraction	–
